Measured values published in BindingDB's records for doi:10.1021/ml3003346 (2012).

Test: Inhibition of EZH2-mediated proliferation of human LNCaP cells after 6 days by chemiluminescence analysis

Cc1cc(C)c(CNC(=O)c2cc(-c3ccc(N4CCN(C)CC4)nc3)cc3c2cnn3C(C)C)c(=O)[nH]1
IC50: 4.5 µM
